According to PubChem BioAssay AID248 (DTP/NCI, 2004):
Toxic doses and inconclusive results are not listed. Cut-off read from the data, not from the text of the source: active = T/C of 150% or more; inactive = T/C below 125%.

Tested on: L1210 leukemia ip in BDF1 mice, survival T/C
Experiment: NCI In Vivo Anticancer Drug Screen. Data for tumor model L1210 Leukemia (intraperitoneal) in B6D2F1 (BDF1) mice
Settings: endpoint: mean survival time, higher = longer survival
Summary of the method: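 Read-out is survival time, reported as the treated-group measurement over the vehicle-control measurement.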

[1] = dose: 100.0 mg/kg/injection, schedule: Q04DX003 (ip), vehicle: saline with Tween-80
[2] = dose: 200.0 mg/kg/injection, schedule: Q04DX003 (ip), vehicle: saline with Tween-80
[3] = dose: 400.0 mg/kg/injection, schedule: Q04DX003 (ip), vehicle: saline with Tween-80
[4] = dose: 100.0 mg/kg/injection, schedule: Q01DX001 (ip), vehicle: carboxymethylcellulose (CMC)
[5] = dose: 100.0 mg/kg/injection, schedule: Q04DX003 (ip), vehicle: saline sonified
[6] = dose: 200.0 mg/kg/injection, schedule: Q01DX001 (ip), vehicle: carboxymethylcellulose (CMC)
[7] = dose: 200.0 mg/kg/injection, schedule: Q04DX003 (ip), vehicle: saline sonified
[8] = dose: 400.0 mg/kg/injection, schedule: Q01DX001 (ip), vehicle: carboxymethylcellulose (CMC)
[9] = dose: 100.0 mg/kg/injection, schedule: Q01DX001 (ip), vehicle: other
[10] = dose: 200.0 mg/kg/injection, schedule: Q01DX001 (ip), vehicle: other
[11] = dose: 100.0 mg/kg/injection, schedule: Q04DX003 (ip), vehicle: saline
[12] = dose: 200.0 mg/kg/injection, schedule: Q04DX003 (ip), vehicle: saline
[13] = dose: 400.0 mg/kg/injection, schedule: Q04DX003 (ip), vehicle: saline
[14] = dose: 100.0 mg/kg/injection, schedule: Q01DX001 (ip), vehicle: saline
[15] = dose: 200.0 mg/kg/injection, schedule: Q01DX001 (ip), vehicle: saline
[16] = dose: 400.0 mg/kg/injection, schedule: Q01DX001 (ip), vehicle: saline
[17] = dose: 50.0 mg/kg/injection, schedule: Q04DX002 (ip), vehicle: saline with Tween-80
[18] = dose: 100.0 mg/kg/injection, schedule: Q04DX002 (ip), vehicle: saline with Tween-80
[19] = dose: 25.0 mg/kg/injection, schedule: Q01DX009 (ip), vehicle: saline with Tween-80
[20] = dose: 100.0 mg/kg/injection, schedule: Q01DX009 (ip), vehicle: saline with Tween-80
[21] = dose: 100.0 mg/kg/injection, schedule: Q01DX009 (ip), vehicle: saline
[22] = dose: 200.0 mg/kg/injection, schedule: Q01DX009 (ip), vehicle: saline

Measured: T/C

O=[N+]([O-])c1ccc(Cl)c(CNc2ncnc3nc[nH]c23)c1
inactive: [1] 92 % of control | [2] 93 % of control | [3] 106 % of control

COc1ccc2c(c1)CCC(=O)O2
inactive: dose: 50.0 mg/kg/injection, schedule: Q01DX001 (ip), vehicle: carboxymethylcellulose (CMC) 100 % of control | [4] 96 % of control | [5] 102 % of control | [6] 100 % of control | [7] 104 % of control | [8] 100 % of control | dose: 400.0 mg/kg/injection, schedule: Q04DX003 (ip), vehicle: saline sonified 102 % of control

O=C(NOC(=O)c1ccccc1)c1ccccc1
inactive: dose: 25.0 mg/kg/injection, schedule: Q04DX002 (ip), vehicle: Klucel (hydroxypropylcellulose) (HPC) 97 % of control | dose: 50.0 mg/kg/injection, schedule: Q04DX002 (ip), vehicle: Klucel (hydroxypropylcellulose) (HPC) 97 % of control | dose: 100.0 mg/kg/injection, schedule: Q04DX002 (ip), vehicle: Klucel (hydroxypropylcellulose) (HPC) 97 % of control | [1] 103 % of control | [2] 91 % of control | [3] 101 % of control

Brc1ccc(Br)c2cnccc12
inactive: [9] 93 % of control | [10] 106 % of control | dose: 400.0 mg/kg/injection, schedule: Q01DX001 (ip), vehicle: other 104 % of control

O=C1CSC(=O)N1c1ccccc1
inactive: dose: 100.0 mg/kg/injection, schedule: Q01DX001 (ip), vehicle: saline with Tween-80 107 % of control | [11] 93 % of control | dose: 200.0 mg/kg/injection, schedule: Q01DX001 (ip), vehicle: saline with Tween-80 94 % of control | [12] 100 % of control | dose: 400.0 mg/kg/injection, schedule: Q01DX001 (ip), vehicle: saline with Tween-80 98 % of control | [13] 89 % of control

O=C(Cl)Oc1cccc2ccccc12
inactive: dose: 50.0 mg/kg/injection, schedule: Q01DX001 (ip), vehicle: saline 108 % of control | [14] 113 % of control | [15] 104 % of control | [16] 98 % of control

Cc1c(C2CCC(=O)C2)c2ccccc2n1C (centres undefined)
inactive: [4] 93 % of control | [6] 89 % of control | [8] 88 % of control

O=[N+]([O-])c1ccc(O)c(CCl)c1
inactive: [17] 109 % of control | dose: 100.0 mg/kg/injection, schedule: Q04DX002 (ip), vehicle: DMSO 107 % of control | [18] 109 % of control | dose: 200.0 mg/kg/injection, schedule: Q04DX002 (ip), vehicle: DMSO 86 % of control | dose: 200.0 mg/kg/injection, schedule: Q04DX002 (ip), vehicle: saline with Tween-80 98 % of control | dose: 400.0 mg/kg/injection, schedule: Q04DX002 (ip), vehicle: saline with Tween-80 104 % of control

Nc1cc(=O)[nH]c(=S)n1-c1ccc(Br)cn1
inactive: [1] 98 % of control | [2] 86 % of control | [3] 104 % of control

COc1cccc[n+]1CC(=O)c1ccccc1
inactive: dose: 50.0 mg/kg/injection, schedule: Q01DX009 (ip), vehicle: Klucel (hydroxypropylcellulose) (HPC) 95 % of control | dose: 100.0 mg/kg/injection, schedule: Q01DX009 (ip), vehicle: Klucel (hydroxypropylcellulose) (HPC) 98 % of control | dose: 200.0 mg/kg/injection, schedule: Q01DX009 (ip), vehicle: Klucel (hydroxypropylcellulose) (HPC) 95 % of control

Cc1c2cnccc2c(C)c2c1c1ccccc1n2CCNCCO
inactive: dose: 6.25 mg/kg/injection, schedule: Q01DX009 (ip), vehicle: saline with Tween-80 97 % of control | dose: 12.5 mg/kg/injection, schedule: Q01DX009 (ip), vehicle: saline with Tween-80 122 % of control | [19] 113 % of control | [5] 111 % of control | [7] 103 % of control

CCCC(C)(COC(N)=O)COC(N)=O
inactive: [20] 93 % of control | dose: 200.0 mg/kg/injection, schedule: Q01DX009 (ip), vehicle: saline with Tween-80 90 % of control | dose: 400.0 mg/kg/injection, schedule: Q01DX009 (ip), vehicle: saline with Tween-80 109 % of control

Cc1ccnc(NS(=O)(=O)c2ccc(N=Nc3c(N)[nH]c(=S)[nH]c3=O)cc2)n1
inactive: [4] 97 % of control | [6] 95 % of control | [8] 95 % of control

CC(C)C1c2ccccc2C(=O)C1C(N)=O (centres undefined)
inactive: [4] 90 % of control | [6] 100 % of control | [8] 93 % of control

CCN(CC)CCN(CC)CCN(CC)CC
inactive: [21] 94 % of control | [22] 115 % of control

Cc1ccnc(NS(=O)(=O)c2ccc(N=Nc3c(N)[nH]c(=O)[nH]c3=O)cc2)n1
inactive: [14] 100 % of control | [15] 102 % of control | [16] 105 % of control

CC[n+]1ccc(/C=C\c2c(Cl)cccc2Cl)cc1
inactive: dose: 12.5 mg/kg/injection, schedule: Q01DX009 (ip), vehicle: Klucel (hydroxypropylcellulose) (HPC) 100 % of control | dose: 25.0 mg/kg/injection, schedule: Q01DX009 (ip), vehicle: Klucel (hydroxypropylcellulose) (HPC) 100 % of control | dose: 100.0 mg/kg/injection, schedule: Q04DX003 (ip), vehicle: Klucel (hydroxypropylcellulose) (HPC) 100 % of control | dose: 200.0 mg/kg/injection, schedule: Q04DX003 (ip), vehicle: Klucel (hydroxypropylcellulose) (HPC) 100 % of control | dose: 400.0 mg/kg/injection, schedule: Q04DX003 (ip), vehicle: Klucel (hydroxypropylcellulose) (HPC) 112 % of control

O=c1c2cccc3c2-c2c4c(cccc14)cc1cccc(c3=O)c21
inactive: [1] 94 % of control | [2] 89 % of control | [3] 100 % of control

CNC(=O)c1nc(C)c(C)nc1OCc1ccccc1
inactive: [21] 106 % of control | [11] 96 % of control | [22] 92 % of control | [12] 94 % of control | dose: 400.0 mg/kg/injection, schedule: Q01DX009 (ip), vehicle: saline 87 % of control | [13] 96 % of control

C=CCCCCCCCCCNc1cc2c3c(c1)CCCN3CCC2
inactive: dose: 0.19 mg/kg/injection, schedule: Q01DX003 (ip), vehicle: saline 90 % of control | dose: 0.19 mg/kg/injection, schedule: Q01DX009 (ip), vehicle: saline 108 % of control | dose: 0.39 mg/kg/injection, schedule: Q01DX003 (ip), vehicle: saline 98 % of control | dose: 0.39 mg/kg/injection, schedule: Q01DX009 (ip), vehicle: saline 98 % of control | dose: 0.78 mg/kg/injection, schedule: Q01DX003 (ip), vehicle: saline 101 % of control

CCCCCCCCCCNC(=O)C[n+]1cccc(C(=O)N(CC)CC)c1
inactive: dose: 6.25 mg/kg/injection, schedule: Q04DX003 (ip), vehicle: saline 94 % of control | dose: 12.5 mg/kg/injection, schedule: Q04DX003 (ip), vehicle: saline 96 % of control | dose: 25.0 mg/kg/injection, schedule: Q04DX003 (ip), vehicle: saline 93 % of control

CCN(CC)CC(=O)NCC(CCN1CCCCC1)(c1cccc2ccccc12)C(C)C (centres undefined)
inactive: dose: 25.0 mg/kg/injection, schedule: Q01DX009 (ip), vehicle: saline 101 % of control | dose: 50.0 mg/kg/injection, schedule: Q01DX009 (ip), vehicle: saline 115 % of control | [21] 112 % of control

Cc1ccc2ccccc2[n+]1[O-]
inactive: [19] 100 % of control | dose: 25.0 mg/kg/injection, schedule: Q04DX002 (ip), vehicle: saline with Tween-80 93 % of control | dose: 50.0 mg/kg/injection, schedule: Q01DX009 (ip), vehicle: saline with Tween-80 96 % of control | [17] 104 % of control | dose: 75.0 mg/kg/injection, schedule: Q01DX001 (ip), vehicle: carboxymethylcellulose (CMC) 94 % of control | [20] 96 % of control | [18] 96 % of control | dose: 150.0 mg/kg/injection, schedule: Q01DX001 (ip), vehicle: carboxymethylcellulose (CMC) 96 % of control

Cn1c(=O)c2c(nc(C3CC3)n2C)n(C)c1=O
inactive: dose: 50.0 mg/kg/injection, schedule: Q01DX001 (ip), vehicle: other 112 % of control | [9] 95 % of control | [10] 95 % of control
